Here are results for 15 compounds from PubChem BioAssay (NCI).

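In this assay, cells in 96-well plates receive the compound at five concentrations for 48 hours. Endpoints are linearly interpolated between the surrounding concentrations. GI50 is the concentration that inhibits growth by half. At the TGI there is no net growth.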

Some test systems named below: SK-MEL-28 melanoma; HCC-2998 colon; SNB-75 CNS; SF-539 CNS; NCI-H226 lung; UO-31 renal; M14 melanoma; HOP-62 NSCLC; IGROV1 ovarian; MDA-MB-231 breast.
Common to all, as to assay: inhibition of tumour cell growth, NCI panel, 48 h

Turning to `CN(c1ccccc1)c1c(Cl)c(=O)oc2c1ccc1occc12`, the TGI with SK-MEL-28 melanoma, in the assay on HCC-2998 colon, with SNB-75 CNS, in the assay on SF-539 CNS, in the assay with NCI-H226 lung and with UO-31 renal was > 100 µM each time. The TGI with M14 melanoma was > 100 µM.

With `C=CCc1cc(OC)c2c(c1)C(OC)CC(c1ccc(OC)c(OC)c1)O2` (configuration not stated), the TGI in the assay on SK-MEL-28 melanoma, in the assay on HOP-62 NSCLC, in the assay on HCC-2998 colon, in the assay with SNB-75 CNS, in the assay with SF-539 CNS and in the assay on UO-31 renal was > 100 µM in each case. The TGI in the assay on M14 melanoma and with IGROV1 ovarian was > 100 µM in each case.

For `CC1(C)C(=O)C(C)(C)C1=S`, the TGI with SK-MEL-28 melanoma, in the assay with HOP-62 NSCLC, in the assay with HCC-2998 colon, with SNB-75 CNS, in the assay on NCI-H226 lung and in the assay on UO-31 renal was > 100 µM each time. The TGI in the assay with M14 melanoma and in the assay with IGROV1 ovarian was > 100 µM throughout.

As to `O=C(CC(Cl)=C(Cl)Cl)c1cccc(Cl)c1Cl`, the GI50 in the assay with SK-MEL-28 melanoma is > 100 µM; in the assay on HOP-62 NSCLC, 82.1 µM; in the assay on SF-539 CNS, 84.1 µM; in the assay on NCI-H226 lung, 75.1 µM; in the assay with MDA-MB-231 breast, 65.6 µM; in the assay with UO-31 renal, 59.4 µM. Also, the GI50 in the assay on M14 melanoma was > 100 µM; in the assay on IGROV1 ovarian it was 46.3 µM. The TGI with SK-MEL-28 melanoma, in the assay with HOP-62 NSCLC, with SF-539 CNS, with NCI-H226 lung, in the assay on MDA-MB-231 breast and in the assay with UO-31 renal was > 100 µM in each case. For the same compound, the TGI in the assay with M14 melanoma and in the assay with IGROV1 ovarian was > 100 µM in each case.

Consider `COc1cc(CCc2ccc(N)cc2)cc(OC)c1OC`, for which the TGI with SK-MEL-28 melanoma was 92.8 µM; in the assay on HOP-62 NSCLC, > 100 µM; in the assay on HCC-2998 colon, > 100 µM; with SNB-75 CNS, > 100 µM; in the assay on SF-539 CNS, > 100 µM; with NCI-H226 lung, > 100 µM. Moreover, the figures for the TGI in the assay on UO-31 renal, in the assay on M14 melanoma and with IGROV1 ovarian were > 93.1 µM, > 100 µM and > 100 µM, respectively.

Regarding `CCOC(=O)C1(C)CCCCC(=O)N1` (configuration not stated), the TGI in the assay with SK-MEL-28 melanoma, in the assay with HOP-62 NSCLC, in the assay with HCC-2998 colon, in the assay with SNB-75 CNS, in the assay on UO-31 renal and with M14 melanoma was > 100 µM each time. Moreover, in the assay on IGROV1 ovarian, the TGI is > 100 µM.

For `c1ccc2c(c1)cc1n2CC2CN=NC12` (configuration not stated), the TGI in the assay with SK-MEL-28 melanoma, in the assay with HOP-62 NSCLC, in the assay with HCC-2998 colon, in the assay on SNB-75 CNS, in the assay with SF-539 CNS and in the assay on NCI-H226 lung was > 100 µM throughout. The TGI in the assay with UO-31 renal, in the assay on M14 melanoma and in the assay with IGROV1 ovarian was > 100 µM throughout.

Take `Nc1c(Cl)ncnc1NCCCNc1ncnc(Cl)c1N`: the TGI in the assay with SK-MEL-28 melanoma, in the assay on HOP-62 NSCLC, in the assay with HCC-2998 colon, with SF-539 CNS, with NCI-H226 lung and with UO-31 renal was > 100 µM in each case. Besides, the TGI with M14 melanoma and with IGROV1 ovarian was > 100 µM throughout.

Take `CC(SC(=O)Nc1ccc(N=Nc2ccccc2)cc1)C(=O)O` (configuration not stated): the TGI in the assay on SK-MEL-28 melanoma was > 100 µM; with HOP-62 NSCLC, > 100 µM; in the assay on HCC-2998 colon, > 100 µM; with SNB-75 CNS, 46.4 µM; with SF-539 CNS, > 100 µM; with NCI-H226 lung, > 100 µM. Moreover, the TGI in the assay on UO-31 renal, with M14 melanoma and in the assay with IGROV1 ovarian was > 100 µM each time.

For `ClC(Cl)[Si]12OCCN(CCO1)CCO2`, the TGI in the assay on SK-MEL-28 melanoma, in the assay with HCC-2998 colon, in the assay with SNB-75 CNS, in the assay on SF-539 CNS, in the assay with UO-31 renal and with IGROV1 ovarian was > 100 µM each time.

Turning to `CCOc1ccc(NC(=O)CC2C(=O)Nc3ccccc3S2(=O)=O)cc1` (configuration not stated), the TGI with SK-MEL-28 melanoma is > 100 µM; with HOP-62 NSCLC, > 100 µM; in the assay with HCC-2998 colon it was > 100 µM; in the assay with SNB-75 CNS, 43.2 µM; in the assay with SF-539 CNS, > 100 µM; with NCI-H226 lung, 90.3 µM. Moreover, the TGI in the assay with UO-31 renal and in the assay on IGROV1 ovarian was > 100 µM in each case.

`CC(=O)NNc1nc(C)c(C(=O)NNC(=O)C(=O)Nc2ccc(Cl)cc2Cl)s1`: the TGI in the assay with SK-MEL-28 melanoma was > 100 µM; in the assay on HOP-62 NSCLC, > 100 µM; in the assay with HCC-2998 colon, > 100 µM; in the assay with SF-539 CNS, 99.5 µM; in the assay on NCI-H226 lung it was > 100 µM; in the assay on UO-31 renal, 98.2 µM. The TGI in the assay with M14 melanoma and in the assay with IGROV1 ovarian was > 100 µM each time.

With `CN1c2ccccc2N(C(=O)c2ccccc2)C(CC(=O)O)c2cccn21` (configuration not stated), the TGI with SK-MEL-28 melanoma, in the assay with HOP-62 NSCLC, in the assay on HCC-2998 colon, in the assay with SNB-75 CNS, in the assay with SF-539 CNS and in the assay on UO-31 renal was > 100 µM each time. In addition, the TGI with M14 melanoma and with IGROV1 ovarian was > 100 µM in each case.

As to `Cc1c(/C=N/N(C)C)oc2c1cc(O)c1ncccc12`, the TGI was > 100 µM in the assay with SK-MEL-28 melanoma; > 100 µM in the assay on HOP-62 NSCLC; > 100 µM in the assay on HCC-2998 colon; 86.6 µM in the assay with SNB-75 CNS; 48.9 µM in the assay on NCI-H226 lung; 7.12 µM in the assay on UO-31 renal. Also, the TGI in the assay on M14 melanoma worked out at 14.9 µM; in the assay on IGROV1 ovarian, 55.7 µM.

For `Cc1cc(N2CCN(C)CC2)n2nc(-c3ccc(Cl)cc3)nc2n1`, the TGI in the assay with SK-MEL-28 melanoma, with HOP-62 NSCLC, in the assay on SNB-75 CNS, in the assay on SF-539 CNS, in the assay on NCI-H226 lung and with MDA-MB-231 breast was > 100 µM throughout. The TGI in the assay on M14 melanoma and in the assay with IGROV1 ovarian was > 100 µM throughout.
